The values that follow come from US20080031818A1, “Use of Modulators of a Novel Form of Muscle Selective Calcineurin Interacting Protein (Mcip-1-38) as a Treatment for Cardiovascular Diseases” (GILEAD COLORADO, INC., priority 2004, published 2008).

In assay [1] the test system is neonatal rat ventricular myocytes (NRVM). Nature of the assay: Cardiomyocyte cell volume (Coulter counter). In kind it is cell-based. The conditions noted are these: 48 hours exposure to PE, versus untreated controls, FIG. 9. On the procedure: NRVM culture. For preparations of neonatal rat ventricular myocytes (NRVMs), hearts were removed from 10-20 newborn (1-2 days old) Sprague-Dawley rats. Isolated ventricles were pooled, minced and dispersed by three 20-minute incubations at 37° C. in Ads buffer (116 mM NaCl, 20 mM HEPES, 10 mM NaH2PO4, 5.5 mM glucose, 5 mM KCl, […], pH 7.4) containing collagenase Type II (65 units/ml, Worthington) and pancreatin (0.6 mg/ml, GibcoBRL). Dispersed cells were applied to a discontinuous gradient of 40.5% and 58.5% (v/v) Percoll (Amersham Biosciences), centrifuged, and myocytes collected from the interface layer. […]
Hypertrophy and toxicity assays. Primary hypertrophy endpoints for NRVM included quantitation of ANF secretion, total cellular protein and cell volume. ANF in media supernatants was quantitated by competitive ELISA using a monoclonal anti-ANF antibody (Biodesign) and a biotinylated ANF peptide (Phoenix Peptide). Total cellular protein was quantitated by standard Coomassie dye-binding assay; cells were lysed in protein assay reagent (BioRad) and absorbance at A595 was measured after 1 hour. […] After recovery by centrifugation, cell pellets were washed in PBS, resuspended in 10 ml IsoFlow electrolyte solution (Beckman-Coulter) and analyzed with a Z2 Coulter Particle Counter and Size Analyzer (Beckman-Coulter). […]

The subject of another assay is beta myosin heavy chain. In words: Beta myosin heavy chain protein by cytoblot. In kind it is cell-based, rat. The conditions noted are these: NRVM, 48 hours exposure to PE, FIG. 10A. The procedure:
NRVM culture. For preparations of neonatal rat ventricular myocytes (NRVMs), hearts were removed from 10-20 newborn (1-2 days old) Sprague-Dawley rats. Isolated ventricles were pooled, minced and dispersed by three 20-minute incubations at 37° C. in Ads buffer (116 mM NaCl, 20 mM HEPES, 10 mM NaH2PO4, 5.5 mM glucose, 5 mM KCl, […], pH 7.4) containing collagenase Type II (65 units/ml, Worthington) and pancreatin (0.6 mg/ml, GibcoBRL). Dispersed cells were applied to a discontinuous gradient of 40.5% and 58.5% (v/v) Percoll (Amersham Biosciences), centrifuged, and myocytes collected from the interface layer. Myocyte preparations were pre-plated in Dulbecco's modified Eagle's medium (DMEM, Cellgro), supplemented with 10% (v/v) fetal bovine serum (FBS, HyClone), 4 mM L-glutamine and 1% penicillin/streptomycin for 1 hour at 37° C. to reduce fibroblast contamination, then plated at a density of 2.5′10^5 cells per well on 6-well tissue culture plates (or 10,000 cells/well on 96-well tissue culture plates) coated with a 0.2% (w/v) gelatin solution. After 24 hours in culture, myocyte preparations were transferred to serum-free maintenance medium (DMEM supplemented with 0.1% (v/v) Nutridoma (Roche), L-glutamine and penicillin/streptomycin). […]
Myosin heavy chain protein quantitation by cytoblot. […] Plates were read in a 96-well luminometer (Packard Fusion).

In the case of `CNC[C@H](O)c1cccc(O)c1` [phenylephrine], in assay [1], the “increase in cell volume” value was “approximately 50%”. The “beta myosin protein expression” value with beta myosin heavy chain is “increased beta myosin protein expression by several fold”.
